Experimental data published in US10111950B2, “Modified glycolipids and methods of making and using the same” (Vaccinex, Inc., priority 2013, dated 2018).

Columns and labels:
mCD1d.CEA fusion protein = test: Direct comparison of DB12-8 and 7DW8-5 complexes with mCD1d.CEA fusion protein, L363 ELISA; assay type: binding, murine; conditions: for affinity to CD1d, complex detected by L363 ELISA: mCD1d.CEA 10 μg/ml, glycolipid 5 μM
Description: (§1) The ligand binding affinity of plate bound mCD1d was measured by ELISA using mAb L363 to detect murine CD1d/αGalCer complexes. ELISA plates were coated with mCD1d (10 μg/ml, 30 μl/well) overnight at 4° C. in PBS pH 8.2. Supernatant was then removed along with any unbound protein. Glycolipids (5 μM, 30 μl/well) were loaded and allowed to incubate overnight at 25° C. Supernatant was again removed and the complexes were washed three times with PBS to remove any unbound glycolipid. For those complexes that underwent UV activation, UV crosslinking was performed in solution (30 μl/well PBS) and at a fixed wavelength of 365 nm from a UV lamp (RAD-FREE long wave UV lamp, Schleicher & Schuell). The UV lamp was placed one inch from the sample and the sample was allowed to sit on ice for 1 hr.
(§2) The ligand binding affinity of plate bound mCD1d was detected by iNKT DN3A4-1.2 hybridoma stimulation assay. mCD1d (10 μg/ml) was loaded with glycolipids (5 μM) overnight at 25° C. ELISA plates were coated with mCD1d:GC complexes (2.5 μg/ml, 30 μl/well) for 12-18 hours at 4° C. in PBS pH 8.2. Supernatant was then removed and the complexes were washed three times with PBS to remove any unbound glycolipid and protein. For those complexes that underwent UV activation, UV crosslinking was performed in solution (30 μl/well PBS) and at a fixed wavelength of 365 nm from a UV lamp (RAD-FREE long wave UV lamp, Schleicher & Schuell). The UV lamp was placed one inch from the sample and the sample was allowed to sit on ice for 1 hr. Supernatant was then removed and the complexes were washed three times with PBS to remove any unbound glycolipid and protein.
mCD1d.CEA (10 μg/ml), a recombinant mCD1d protein genetically fused with a single chain Fv antibody fragment specific for the tumor associated antigen CEA, was loaded with glycolipids (5 μM) overnight at 25° C. in PBS pH8.2 with 0.05% tyloxapol. The mCD1d.CEA:GC complexes (10 μg/ml, 30 μl/well) were coated onto wells of high binding ELISA 96 well plates overnight at 4° C. UV exposure and incubation to allow dissociation over 3 days were performed as described in Examples 6 and 7.
A scale up of the complex formation in solution was performed using a 10-fold increased concentration of protein and glycolipid and the results are shown in FIG. 9C-9D. mCD1d.CEA (100 μg/ml) was loaded with DB12-8 (50 μM respectively) overnight at 25° C. in PBS pH8.2 with 0.05% tyloxapol. DB12-8:mCD1d.CEA complexes were diluted down to 10 μg/ml and were coated onto the high binding ELISA plates (30 μl/well), overnight at 4° C. UV exposure and incubation to allow dissociation over 3 days were performed as described in Examples 6 and 7.

plate bound mCD1d = target: T1, plate bound mCD1d (Mus musculus, UniProt P11609); test: Ligand binding to plate bound mCD1d with and without UV activation, ELISA using mAb L363; set-up: species or system murine; conditions: for dissociation of CD1d:glycolipid complex after 3 days (L363 ELISA): 3 days in PBS+0.05% Triton X-100 at 25° C.; for CD1d/glycolipid complex formation detected by mAb L363 ELISA: plate bound mCD1d 10 μg/ml, glycolipid 5 μM
T1 construct: recombinant soluble murine CD1d (mCD1d) was diluted to 400 μg/ml in PBS pH 7.2
T1 sequence (P11609 22-305 limits assumed): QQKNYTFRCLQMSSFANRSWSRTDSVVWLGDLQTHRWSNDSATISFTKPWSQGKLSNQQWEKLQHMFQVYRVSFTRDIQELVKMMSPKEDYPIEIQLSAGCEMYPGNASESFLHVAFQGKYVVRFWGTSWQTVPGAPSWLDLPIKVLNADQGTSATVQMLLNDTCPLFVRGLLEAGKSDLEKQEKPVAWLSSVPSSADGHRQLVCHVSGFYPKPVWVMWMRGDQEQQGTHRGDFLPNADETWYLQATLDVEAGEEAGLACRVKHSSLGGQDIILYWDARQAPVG
T1 sequence (P01887 21-119 partner): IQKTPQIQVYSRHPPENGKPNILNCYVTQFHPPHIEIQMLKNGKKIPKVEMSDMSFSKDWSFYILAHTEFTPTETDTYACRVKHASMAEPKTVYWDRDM
Description: as §1

[1] = target: T2, soluble recombinant mCD1d (Mus musculus, UniProt P11609); test: Direct comparison of DB12-8 and 7DW8-5 complexes with soluble recombinant mCD1d, L363 ELISA; assay type: binding, murine; conditions: for affinity to CD1d, complex detected by L363 ELISA: mCD1d 10 μg/ml, glycolipid 5 μM
T2 construct: A soluble recombinant mCD1d protein (10 μg/ml) was loaded with glycolipids
T2 sequence (P11609 22-305 limits assumed): T1 sequence (P11609 22-305 limits assumed)
T2 sequence (P01887 21-119 partner): T1 sequence (P01887 21-119 partner)
Description: as §1, §2
A soluble recombinant mCD1d protein (10 μg/ml) was loaded with glycolipids (5 μM) overnight at 25° C. in PBS pH8.2 with 0.05% tyloxapol. The mCD1d:GC complexes (10 μg/ml, 30 μl/well) were coated onto the high binding ELISA plates, overnight at 4° C. UV exposure and incubation to allow dissociation over 3 days was performed as described in Examples 6 and 7.

[2] = system: iNKT hybridoma DN3A4-1.2 with plate bound mCD1d; test: Plate bound mCD1d:glycolipid complexes with and without UV activation, iNKT DN3A4-1.2 hybridoma stimulation assay (IL-2 ELISA); assay type: cell-based, murine; conditions: for iNKT stimulation post-dissociation (IL-2 ELISA): after 3 days dissociation, non-crosslinked mCD1d complexes (UV state not stated for 7DW8-5); for iNKT hybridoma stimulation following UV crosslinking (IL-2 ELISA): UV crosslinked 365 nm 1 hr
Description: as §2

[3] = system: iNKT hybridoma DN3A4-1.2 with human CD1d transfected HeLa cells; test: iNKT hybridoma stimulation (IL-2 secretion) with hCD1d expressing HeLa cells; assay type: cell-based; conditions: BPGC 5 to 0.01 μg/ml for 3 hrs, hybridoma 18 hours
Description: The activated natural killer cells were again calculated based on those secreting IL-2. Specifically, plate bound human CD1d transfected HeLa cells (10,000 cells in 100 μl medium) were plated in a 96 well tissue culture plate and allowed to adhere to the plates for 30 minutes at 37° C. Adherent HeLa cells were treated with varying BPGC concentrations ranging between 5 and 0.01 μg/ml in 100 μl for 3 hrs at 37° C. Glycolipid not taken up by cells was removed by washing with medium. To detect the BPGC presentation by CD1d, iNKT hybridoma DN3A4-1.2 (5000 cells in 100 μl volume) was added and the stimulation was detected by the level of IL-2 secreted in the supernatant following incubation at 37° C. for 18 hours.

[4] = system: iNKT hybridoma DN3A4-1.2 with murine CD1d-expressing antigen presenting cells; test: iNKT hybridoma stimulation (IL-2 secretion) with mCD1d expressing BMDCs; assay type: cell-based, mouse; conditions: BMDCs from C57BL/6 mice, BPGC 5 to 0.01 μg/ml for 3 hrs, hybridoma 18 hrs
Description: The activated natural killer cells were calculated based on those secreting IL-2. Specifically, bone marrow-derived dendritic cells (BMDCs) from C57BL/6 mice (10,000 cells in 100 μl culture medium) were plated in wells of a 96 well tissue culture plate and allowed to adhere to the plates for 30 minutes at 37° C. The cultures were then exposed to varying BPGC concentrations ranging between 5 and 0.01 μg/ml in 100 μl for 3 hrs at 37° C. Glycolipids not taken up by BMDCs were removed by washing with culture medium. To detect the BPGC presentation by CD1d, iNKT hybridoma DN3A4-1.2 (5000 cells in 100 μl volume) was added and the stimulation was detected by the level of IL-2 secreted in the supernatant following 18 hrs of incubation at 37° C.

mouse CD1d = target: T3, mouse CD1d (Mus musculus, UniProt P11609); test: Tryptophan fluorescence quenching of mCD1d by glycolipid binding; conditions: protein 0.1 μM, glycolipid 4 μM, 25° C., excited at λ295
T3 construct: recombinant soluble murine CD1d (mCD1d) was diluted to 400 μg/ml in PBS pH 7.2
T3 sequence (P11609 22-305 limits assumed): T1 sequence (P11609 22-305 limits assumed)
T3 sequence (P01887 21-119 partner): T1 sequence (P01887 21-119 partner)
Description: The effect of glycolipid binding to mouse CD1d was tested. Fluorescence quenching of mCD1d due to glycolipid binding was measured using a Horibo Jobin Yvon Fluoromax-3 fluorescent spectrophotometer and the data were analyzed using FluorEssence software. Protein (0.1 μM) was mixed either with glycolipid antigens (at 4 μM) or the ligand vehicle in a quartz cuvette 1 cm wide, to a final volume of 100 μl and placed in the spectrometer already set at 25° C. The samples were excited at λ295 and emission measured from […] to λ400.

Compound	dissociation after 3 days (L363 ELISA signal) (mCD1d.CEA fusion protein; UV exposure at 365 nm)	affinity to CD1d, complex detected by L363 ELISA (mCD1d.CEA fusion protein)	dissociation after 3 days (L363 ELISA signal) (mCD1d.CEA fusion protein; non UV-crosslinked state)	dissociation of CD1d:glycolipid complex after 3 days (L363 ELISA) (plate bound mCD1d; UV irradiated 365 nm 1 hr)	dissociation of CD1d:glycolipid complex after 3 days (L363 ELISA) (plate bound mCD1d; not UV irradiated)	dissociation after 3 days (L363 ELISA signal) ([1]; UV exposure at 365 nm)	affinity to CD1d, complex detected by L363 ELISA [1]	dissociation after 3 days (L363 ELISA signal) ([1]; non UV-crosslinked state)	iNKT stimulation post-dissociation (IL-2 ELISA) [2]	iNKT stimulation, level of IL-2 secreted in the supernatant [3]	iNKT stimulation, level of IL-2 secreted in the supernatant [4]	CD1d/glycolipid complex formation detected by mAb L363 ELISA (plate bound mCD1d)	iNKT hybridoma stimulation following UV crosslinking (IL-2 ELISA) [2]	fluorescence quenching of mCD1d due to glycolipid binding (mouse CD1d)	reduction in OD450 after 3 days (mCD1d.CEA fusion protein; 10-fold scale up (mCD1d.CEA 100 μg/ml, DB12-8 50 μM), UV-crosslinked samples)	decrease in OD450 after 3 days incubation (mCD1d.CEA fusion protein; 10-fold scale up (mCD1d.CEA 100 μg/ml, DB12-8 50 μM), non-crosslinked complexes) [%]	L363 ELISA signal following UV-crosslinking (mCD1d.CEA fusion protein; mCD1d.CEA complex)	binding to CD1d ([2]; following UV crosslinking)
CCCCCCCCCCCCCC[C@@H](O)[C@@H](O)[C@H](CO[C@H]1O[C@H](CO)[C@H](O)[C@H](O)[C@H]1O)NC(=O)CCCCCCCCCCc1ccc(F)cc1 [Compound 7DW8-5, reference compound]	almost complete loss of signal	showed affinity to CD1d	almost complete loss of signal	dissociated after 3 days	dissociated after 3 days	almost complete loss of signal	showed affinity to CD1d	almost complete loss of signal	did not stimulate iNKT post-dissociation	–	–	–	–	–	–	–	–	–
CCCCCCCCCCCCCC[C@@H](O)[C@@H](O)[C@H](COC1OC(CO)C(O)C(O)C1O)NC(=O)CCCCCCCCCOCc1cccc(C(=O)c2ccccc2)c1 (some centres unmarked) [DB11-2]	–	–	–	no significant dissociation	–	–	–	–	some, albeit reduced, iNKT stimulation even after dissociation	stimulatory toward iNKT cells	stimulated iNKTs most efficiently at a low concentration of 0.1 μg/ml	highest levels of immunoreactive complex formation	second best stimulator	–	–	–	–	–
CCCCCCCCCCCCCC[C@@H](O)[C@@H](O)[C@H](COC1OC(CO)C(O)C(O)C1O)NC(=O)CCCCCCCCOCc1cccc(C(=O)c2ccccc2)c1 (some centres unmarked) [DB12-7]	–	–	–	–	–	–	–	–	some, albeit reduced, iNKT stimulation even after dissociation	–	lower but still significant IL-2 secretion	–	–	greatest quenching	–	–	–	–
CCCCCCCCCCCCCC[C@@H](O)[C@@H](O)[C@H](COC1OC(CO)C(O)C(O)C1O)NC(=O)CCCCCCCCCCOCc1cccc(C(=O)c2ccccc2)c1 (some centres unmarked) [DB12-8]	no dissociation was observed	showed affinity to CD1d	almost completely dissociated	no significant dissociation	–	no dissociation was observed	showed affinity to CD1d	dissociated almost completely	some, albeit reduced, iNKT stimulation even after dissociation	stimulatory toward iNKT cells	–	highest levels of immunoreactive complex formation	stimulated iNKT hybridoma better than other glycolipids	–	no detectable reduction in OD450	~75	increases significantly	bound efficiently to CD1d
CCCCCCCCCCCCCC[C@@H](O)[C@@H](O)[C@H](COC1OC(CO)C(O)C(O)C1O)NC(=O)CCCCCCCCCCCOCc1cccc(C(=O)c2ccccc2)c1 (some centres unmarked) [DB12-9]	–	–	–	no significant dissociation	–	–	–	–	some, albeit reduced, iNKT stimulation even after dissociation	–	–	highest levels of immunoreactive complex formation	–	–	–	–	–	–
CCCCCCCCCCCCCCCCCCCCCCCCCC(=O)N[C@@H](CO[C@H]1O[C@H](CO)[C@H](O)[C@H](O)[C@H]1O)[C@H](O)[C@H](O)CCCCCCCCCCCCCC [KRN7000, (2S,3S,4R)-1-O-(α-D-galactopyranosyl)-N-hexacosanoyl-2-amino-1,3,4-octadecanetriol, reference compound]	–	–	–	dissociated after 3 days	dissociated after 3 days	–	–	–	–	–	–	–	–	–	–	–	–	–
